Patent US20090325863A1, “Somatostatin analogs and IGF-I inhibition for breast cancer prevention” (priority 2008, published 2009)
Where “and” joins values, the source holds several entries; their conditions need not be identical. Equal values may be shown once. Entries after “also recorded” stand apart in the source; their conditions may differ. Marks after values point to notes of the source that are not given here. *1 amine or outer side, *2 acyl side, *3 side chain or, on linkers, in order; H or OH if unused. Where a SMILES comes first, the peptide text is derived from it. Side-chain parts run from the residue outwards. [ ]: non-standard residue; d: D form. The star is where a group is joined. Ethylenediamine = C(CN[*:2])N[*:1]; Hyp = O=C(O)[C@@H]1C[C@@H](O)CN1; Phg = N[C@H](C(=O)O)c1ccccc1; CO = O=C([*:1])[*:2]; Bn = c1ccc(C*)cc1

Tests used:
[1] = tested on: hGH induced TEB formation; assay: Hyperplastic terminal endbuds (TEBs) in mammary gland whole mounts, hGH+E2 model; assay type: in vivo, rat; settings: for TEB area: Table 2, mean of 3 animals, hGH + E control 43.1 ± 2.9, P 0.002
From the text: At the end of 7 days one lumbar mammary gland was removed for whole mount analysis and the other for histological analysis. Hyperplastic TEBs were counted in the whole mounts. […] Representative photomicrographs of the whole mounts are provided in FIG. 5 and suppression by the different treatments is shown graphically in FIG. 6.

[2] = tested on: Ki67 positive cells in mammary gland; assay: Cell proliferation by Ki67 immunostaining in mammary gland, hGH+E2 model; assay type: in vivo, rat; settings: for % Ki67 positive cells, Normal gland / % Ki67 positive cells, DH structure Mod + mild: 3 animals; for % Ki67 positive cells, Normal gland: hGH + E2 control 5.1 ± 0.1; for % Ki67 positive cells, DH structure Mod + mild: hGH + E2 control 22.5 ± 1.6 (P < 0.05); for cell proliferation / Ki67 staining (in words): hGH+E2 model versus hGH+E2 control
Description: The histological sections were also analyzed for cell proliferation by Ki67 immunostaining and for apoptosis by TUNEL. Twenty five percent of cells in areas of florid hyperplasia were stained for Ki67. […] When the glands were normal and not hyperplastic, only 5.1% stained for Ki67. […] The immunostaining for Ki67 can be seen in FIG. 3.
We next determined the effects of the various treatment regimens on cell proliferation as assessed by Ki67 immunostaining. […] The percent Ki67 positive cells is depicted in TABLE 4 below.

[3] = tested on: TUNEL labeled cells in mammary gland; assay: Apoptosis by TUNEL staining in mammary gland, hGH+E2 model; assay type: in vivo, rat; settings: for % TUNEL labeled cells, DH structure Mod + mild / % TUNEL labeled cells, Normal gland: 3 animals, 7 days; for % TUNEL labeled cells, DH structure Mod + mild: hGH + E2 control 1.9 ± 0.2 (P < 0.002); for % TUNEL labeled cells, Normal gland: hGH + E2 control 2.3 ± 0.1 (P < 0.001); for apoptosis / cell death (in words): hGH+E2 model versus hGH+E2 control
From the text: We also looked at the effect of the various treatment regimens on apoptosis. GH+E2 inhibited apoptosis, with the results are as follows. […] The percent TUNEL labeled cells is depicted in TABLE 5 below.

[4] = tested on: pYIRS-1 (phosphorylated IRS-1), product of IGF-I action; assay: Immunostaining for phosphorylated IRS-1 in mammary gland, hGH+E2 model; assay type: in vivo, rat; settings: hGH+E2 treated animals; staining most intense with hGH+E2
From the text: FIG. 12 depicts immunostaining for pYIRS-1 (phosphorylated IRS-1) in a representative E2 treated control (upper left), an hGH+E2 treated animal (upper right), an hGH+E2+SOM230 treated animal (lower left) and an hGH+E2+tamoxifen treated animal (lower right). The intensity of staining parallels IGF-I action as phosphorylated IRS-1 is a product of IGF-I action. In this study, staining (brown color) was most intense in response to hGH+E2 and was inhibited by both SOM230 and tamoxifen. […] This reflection of inhibition of IGF-I activity also supports the greater inhibitory effect of SOM230 over that of tamoxifen.

[5] = tested on: mast cells in mammary glands; assay: Mast cells and mammary development in normally developing rats treated from day 21 to 28; assay type: in vivo, rat; settings: for Mast cell density stromal / Mast cell density around glands: 28 day old rats treated from day 21, 3 animals; for Mast cell density stromal: normal 3.5 ± 0.8; for Mast cell density around glands: normal 11.5 ± 1.6
From the text: We have found for the first time that mast cells play a role in normal mammary development. Mast cells appear around developing mammary gland structures in rats. […] The same animals when they were 21 days old were given SOM230. […] The mast cells are found directly around the developing glands in the stromal compartment.
Overall, the number of mast cells/mm^2 was reduced by SOM230 treatment, as per TABLE 7 below. Mast cells surrounding glands and those elsewhere in the stromal compartment were both reduced.

VEGF = VEGF immunostaining in mammary glands of normally developing rats; assay type: in vivo, rat; settings: 28 day old rats treated from day 21; gland cells and mast cells
From the text: (§1) They were found in both gland cells and mast cells.

Factor VIII = Factor VIII immunostaining in mammary glands of normally developing rats; assay type: in vivo, rat; settings: 28 day old rats treated from day 21; gland cells and mast cells
From the text: as §1

[6] = tested on: hyperplastic lesions, LCIS and DCIS of human mammary gland; assay: Proof of principle clinical trial, biopsies before and after treatment (Ki67, TUNEL); assay type: in vivo
From the text: Background: Antiestrogens or aromatase inhibitors are used for breast cancer chemoprevention. These treatments cause unpleasant side effects including hot flashes and vaginal dryness. We have previously shown that IGF-I is required to permit estrogen and progesterone action in the mammary gland. […] Menopausal symptoms would not likely to occur with SOM230 since estrogen is not lowered. Material and Methods: We have approached this issue in several ways. 1) We developed a model of hyperplasia in hypophysectomized and oophorectomized female rats. Hyperplasia was induced by treatment with 600 mcg hGH and follicular phase concentrations of estradiol. Hyperplasia was assessed histologically in sections of mammary gland. 2) To assess translatability to humans we assessed cell proliferation and apoptosis in normal human breast from reduction mammoplasties and samples of usual hyperplasia. 3) We also determined availability of SST receptors in samples of atypical ductal hyperplasia and DCIS, and 4) We have begun to determine whether SOM230 will prevent hyperplasia in humans at risk for breast cancer as it does in rats.
A proof of principle clinical trial is underway to further confirm whether SOM230 inhibits cell proliferation and increases apoptosis in human mammary gland as it does in rats. Data is presently available on 11 enlisted subjects. All patients had atypical hyperplasia on core biopsy and were given 600 ug SOM230 twice daily by injection. Data is available on 8 patients who had forms of hyperplasia that increase the likelihood of developing breast cancer. […] The effect of SOM230 on apoptosis and cell proliferation in hyperplastic lesions in the 8 patients is graphed in FIG. 17. This was also true in 2 cases of LCIS, a pre-cancerous condition, and one case of ductal carcinoma in situ, a cancerous situation. Apoptosis and cell proliferation is graphed for the 2 lobular hyperplasia patients in FIG. 18. FIG. 19 provides a DCIS patient sample cell staining for TUNEL and Ki67 before and after SOM230 administration. DCIS is a very common type of noninvasive breast cancer in women. Thus, human beings respond to SOM230 by inhibiting IGF-I action in the mammary gland. Taken together with our data on relative effects of SOM230 and Tamoxifen our data provide evidence that SOM230 will be at least as effective in preventing or treating breast cancer as Tamoxifen.

SSTR-3 = SSTR-3 (Homo sapiens, UniProt P32745); settings: cited from earlier work
Chain of SSTR-3 (P32745 whole entry, species assumed): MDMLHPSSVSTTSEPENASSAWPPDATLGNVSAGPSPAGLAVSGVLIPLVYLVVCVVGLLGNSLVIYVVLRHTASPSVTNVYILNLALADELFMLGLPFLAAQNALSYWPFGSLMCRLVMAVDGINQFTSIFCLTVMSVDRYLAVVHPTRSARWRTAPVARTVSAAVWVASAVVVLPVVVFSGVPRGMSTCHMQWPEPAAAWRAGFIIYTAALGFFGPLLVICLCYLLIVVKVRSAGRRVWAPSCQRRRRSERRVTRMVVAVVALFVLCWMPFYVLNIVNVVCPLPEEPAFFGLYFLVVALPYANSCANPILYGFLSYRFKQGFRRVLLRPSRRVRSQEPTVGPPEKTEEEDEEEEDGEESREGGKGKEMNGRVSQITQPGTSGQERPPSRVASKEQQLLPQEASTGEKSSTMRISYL

SSTR-5 = SSTR-5 (Homo sapiens, UniProt P35346); settings: cited from earlier work
Chain of SSTR-5 (P35346 whole entry, species assumed): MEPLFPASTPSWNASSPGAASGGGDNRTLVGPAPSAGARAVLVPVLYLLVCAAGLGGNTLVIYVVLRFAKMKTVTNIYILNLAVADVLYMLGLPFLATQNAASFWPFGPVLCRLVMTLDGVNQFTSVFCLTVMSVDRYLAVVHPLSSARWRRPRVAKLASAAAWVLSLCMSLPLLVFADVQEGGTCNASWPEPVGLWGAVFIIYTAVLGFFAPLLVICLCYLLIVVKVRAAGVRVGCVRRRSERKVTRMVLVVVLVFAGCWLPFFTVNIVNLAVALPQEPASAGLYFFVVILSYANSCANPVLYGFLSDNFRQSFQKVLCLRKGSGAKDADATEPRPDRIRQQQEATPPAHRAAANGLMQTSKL

[7] = 8 hyperplasia patients, 600 ug twice daily by injection, biopsy before/after
[8] = lobular carcinoma in situ patients (2 cases), excisional versus core biopsy

## NCCCC[C@@H]1NC(=O)[C@@H](Cc2c[nH]c3ccccc23)NC(=O)[C@H](c2ccccc2)NC(=O)[C@@H]2C[C@@H](OC(=O)NCCN)CN2C(=O)[C@H](Cc2ccccc2)NC(=O)[C@H](Cc2ccc(OCc3ccccc3)cc2)NC1=O [SOM230] (cyclo([Hyp]([CO-Ethylenediamine])[Phg][dW]KY(Bn)F))
[1]; Table 2, animal # 1-3, hGH + E controls 48549, 38496, 42285, listed as SOM
  TEB area, individual animals: 18816 and 13652 and 15356
[1]
  TEB area: reduced
[1]; listed as SOM
  TEB area: 15.9 ± 1.5 (μm^2) × 10^3
[1]; hGH+E2, 7 days, reduced from 86.5 (86) TEBs in hGH+E2 control
  number of hyperplastic TEBs in whole mounts: 27.5
[2]
  % Ki67 positive cells, Normal gland: no significant reduction
  % Ki67 positive cells, DH structure Mod + mild: 14.2%
  cell proliferation / Ki67 staining (in words): reduction in cell proliferation; also recorded: decrease in Ki67 staining
[2]; listed as SOM
  % Ki67 positive cells, Normal gland: 4.3 ± 0.4%
  % Ki67 positive cells, DH structure Mod + mild: 14.2 ± 2.5%
[2]; listed as SOM 230
  cell proliferation / Ki67 staining (in words): remarkable decrease in cell division
[3]
  % TUNEL labeled cells, DH structure Mod + mild: increase in apoptosis
  % TUNEL labeled cells, Normal gland: increase in apoptosis
  apoptosis / cell death (in words): increase in cell death; also recorded: increase in apoptosis; also recorded: more apoptosis
[3]; listed as SOM
  % TUNEL labeled cells, DH structure Mod + mild: 5.5 ± 0.4%
  % TUNEL labeled cells, Normal gland: 6.5 ± 0.4%
[3]; listed as SOM 230
  apoptosis / cell death (in words): increase in apoptosis
[4]
  intensity of pYIRS-1 immunostaining: inhibited
[5]
  Mast cell density stromal: reduced
  Mast cell density around glands: reduced
[5]; listed as SOM
  Mast cell density stromal: 1.1 ± 0.3^d MC#/1 mm^2
  Mast cell density around glands: 3.7 ± 0.7^b MC#/1 mm^2
[5]; normally developing glands versus SOM230 treated
  micro vessel density: greater in glands that were developing normally
[5]; normally developing rats treated from day 21 to 28
  mammary development: inhibit mammary development
VEGF
  expression of VEGF (immunostaining): reduced expression
Factor VIII
  expression of Factor VIII (immunostaining): reduced expression
[6]; [7]
  apoptosis (TUNEL assay) in hyperplastic lesions: increase in apoptosis
  cell proliferation (Ki67 assay) in hyperplastic lesions: inhibition of cell proliferation
[6]; [8]
  apoptosis (TUNEL) in LCIS: increased apoptosis
  cell proliferation (Ki67) in LCIS: decreased cell proliferation
SSTR-3
  affinity for SSTR-3: has affinity
SSTR-5
  affinity for SSTR-5: has affinity
